Test results from patent US20230365592A1 (Agios Pharmaceuticals, Inc., priority 2022, published 2023).

The compounds below were run against T1, human PAH with the R408W mutation (Homo sapiens, UniProt P00439, R408W) (assay: Cell Based Phenylalanine Flux Assay). Conditions: A375 cells expressing human R408W PAH; 24 hrs compound incubation; 13C-Tyrosine by LC-MS; average where tested multiple times; read-out: AC50.
T1 construct: expressed in transfected cells
T1 sequence (P00439 1-452 R408W): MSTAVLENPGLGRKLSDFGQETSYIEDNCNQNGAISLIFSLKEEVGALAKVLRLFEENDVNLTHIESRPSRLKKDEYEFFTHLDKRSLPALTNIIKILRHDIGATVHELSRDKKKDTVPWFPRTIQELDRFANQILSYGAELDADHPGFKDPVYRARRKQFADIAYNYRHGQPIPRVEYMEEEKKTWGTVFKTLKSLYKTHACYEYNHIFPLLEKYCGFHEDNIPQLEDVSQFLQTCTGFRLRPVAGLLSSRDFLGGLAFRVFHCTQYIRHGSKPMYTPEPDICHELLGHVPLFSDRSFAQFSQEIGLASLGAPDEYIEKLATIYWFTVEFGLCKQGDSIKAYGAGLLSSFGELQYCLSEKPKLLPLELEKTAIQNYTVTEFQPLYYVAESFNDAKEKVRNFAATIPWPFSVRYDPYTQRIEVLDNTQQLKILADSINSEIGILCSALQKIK
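Further: after compound treatment, cells received sepiapterin plus isotope-labelled Phenylalanine for 4 hours, then labelled Tyrosine in the medium was quantified, 10-point 2-fold dilution series run in duplicate.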

Structure (SMILES)	AC50
Cc1nc(C(C)(C)F)oc1C(=O)N1CCc2[nH]cnc2[C@H]1c1cc2cccc(F)n2n1 [Example 1278, (S)-(2-(2-fluoropropan-2-yl)-4-methyloxazol-5-yl)(4-(7-fluoropyrazolo[1,5-a]pyridin-2-yl)-6,7-dihydro-1H-imidazo[4,5-c]pyridin-5(4H)-yl)methanone]	< 500 nM
Cc1cccc2cc([C@H]3c4nc[nH]c4CCN3C(=O)c3oc(C4(O)CC4)nc3C(F)F)nn12 [Example 1281, (R)-(4-(difluoromethyl)-2-(1-hydroxycyclopropyl)oxazol-5-yl)(4-(7-methylpyrazolo[1,5-a]pyridin-2-yl)-6,7-dihydro-1H-imidazo[4,5-c]pyridin-5(4H)-yl)methanone]	1000 to 5000 nM
Cc1nnc(C(=O)N2CCc3[nH]cnc3[C@H]2c2cc3c(C(F)F)cccn3n2)o1 [Example 1283, (S)-(4-(4-(difluoromethyl)pyrazolo[1,5-a]pyridin-2-yl)-6,7-dihydro-1H-imidazo[4,5-c]pyridin-5(4H)-yl)(5-methyl-1,3,4-oxadiazol-2-yl)methanone]	500 to 1000 nM
CC1(c2nnc(C(=O)N3CCc4[nH]cnc4[C@H]3c3cc4ccccn4n3)o2)CC1 [Example 1284, (S)-(5-(1-methylcyclopropyl)-1,3,4-oxadiazol-2-yl)(4-(pyrazolo[1,5-a]pyridin-2-yl)-6,7-dihydro-1H-imidazo[4,5-c]pyridin-5(4H)-yl)methanone]	< 500 nM
CC1(c2nnc(C(=O)N3CCc4[nH]cnc4[C@@H]3c3cc4ccccn4n3)o2)CC1 [Example 1285, (R)-(5-(1-methylcyclopropyl)-1,3,4-oxadiazol-2-yl)(4-(pyrazolo[1,5-a]pyridin-2-yl)-6,7-dihydro-1H-imidazo[4,5-c]pyridin-5(4H)-yl)methanone]	1000 to 5000 nM
Cc1cccn2nc([C@@H]3c4nc[nH]c4CCN3C(=O)c3cnn4ccccc34)cc12 [Example 1286, (S)-(4-(4-methylpyrazolo[1,5-a]pyridin-2-yl)-6,7-dihydro-1H-imidazo[4,5-c]pyridin-5(4H)-yl)(pyrazolo[1,5-a]pyridin-3-yl)methanone]	< 500 nM
Cc1cccn2nc([C@H]3c4nc[nH]c4CCN3C(=O)c3cnn4ccccc34)cc12 [Example 1287, (R)-(4-(4-methylpyrazolo[1,5-a]pyridin-2-yl)-6,7-dihydro-1H-imidazo[4,5-c]pyridin-5(4H)-yl)(pyrazolo[1,5-a]pyridin-3-yl)methanone]	500 to 1000 nM
O=C(c1cnn2ccccc12)N1CCc2[nH]cnc2[C@@H]1c1cc2c(F)cccn2n1 [Example 1288, (R)-(4-(4-fluoropyrazolo[1,5-a]pyridin-2-yl)-6,7-dihydro-1H-imidazo[4,5-c]pyridin-5(4H)-yl)(pyrazolo[1,5-a]pyridin-3-yl)methanone]	500 to 1000 nM
O=C(c1cnn2ccccc12)N1CCc2[nH]cnc2[C@H]1c1cc2c(F)cccn2n1 [Example 1289, (S)-(4-(4-fluoropyrazolo[1,5-a]pyridin-2-yl)-6,7-dihydro-1H-imidazo[4,5-c]pyridin-5(4H)-yl)(pyrazolo[1,5-a]pyridin-3-yl)methanone]	< 500 nM
c1ccc(-c2nnc(N3CCc4[nH]cnc4[C@@H]3c3cc4ccccn4n3)o2)nc1 [Example 1290, (R)-2-(4-(pyrazolo[1,5-a]pyridin-2-yl)-6,7-dihydro-1H-imidazo[4,5-c]pyridin-5(4H)-yl)-5-(pyridin-2-yl)-1,3,4-oxadiazole]	1000 to 5000 nM
c1ccc(-c2nnc(N3CCc4[nH]cnc4[C@H]3c3cc4ccccn4n3)o2)nc1 [Example 1291, (S)-2-(4-(pyrazolo[1,5-a]pyridin-2-yl)-6,7-dihydro-1H-imidazo[4,5-c]pyridin-5(4H)-yl)-5-(pyridin-2-yl)-1,3,4-oxadiazole]	500 to 1000 nM
O=C(c1nnc(-c2cccnc2)o1)N1CCc2[nH]cnc2[C@H]1c1cc2c(Cl)cccn2n1 [Example 1292, (S)-(4-(4-chloropyrazolo[1,5-a]pyridin-2-yl)-6,7-dihydro-1H-imidazo[4,5-c]pyridin-5(4H)-yl)(5-(pyridin-3-yl)-1,3,4-oxadiazol-2-yl)methanone]	< 500 nM
O=C(c1nnc(-c2cccnc2)o1)N1CCc2[nH]cnc2[C@@H]1c1cc2c(Cl)cccn2n1 [Example 1293, (R)-(4-(4-chloropyrazolo[1,5-a]pyridin-2-yl)-6,7-dihydro-1H-imidazo[4,5-c]pyridin-5(4H)-yl)(5-(pyridin-3-yl)-1,3,4-oxadiazol-2-yl)methanone]	1000 to 5000 nM
O=C(c1nnc(-c2ncccc2F)o1)N1CCc2[nH]cnc2[C@@H]1c1cc2c(Cl)cccn2n1 [Example 1294, (R)-(4-(4-chloropyrazolo[1,5-a]pyridin-2-yl)-6,7-dihydro-1H-imidazo[4,5-c]pyridin-5(4H)-yl)(5-(3-fluoropyridin-2-yl)-1,3,4-oxadiazol-2-yl)methanone]	1000 to 5000 nM
O=C(c1nnc(-c2ncccc2F)o1)N1CCc2[nH]cnc2[C@H]1c1cc2c(Cl)cccn2n1 [Example 1295, (S)-(4-(4-chloropyrazolo[1,5-a]pyridin-2-yl)-6,7-dihydro-1H-imidazo[4,5-c]pyridin-5(4H)-yl)(5-(3-fluoropyridin-2-yl)-1,3,4-oxadiazol-2-yl)methanone]	< 500 nM
CC1(c2nnc(C(=O)N3CCc4[nH]cnc4[C@H]3c3cc4cccc(Cl)n4n3)o2)CC1 [Example 1296, (S)-(4-(7-chloropyrazolo[1,5-a]pyridin-2-yl)-6,7-dihydro-1H-imidazo[4,5-c]pyridin-5(4H)-yl)(5-(1-methylcyclopropyl)-1,3,4-oxadiazol-2-yl)methanone]	< 500 nM
CC1(c2nnc(C(=O)N3CCc4[nH]cnc4[C@@H]3c3cc4cccc(Cl)n4n3)o2)CC1 [Example 1297, (R)-(4-(7-chloropyrazolo[1,5-a]pyridin-2-yl)-6,7-dihydro-1H-imidazo[4,5-c]pyridin-5(4H)-yl)(5-(1-methylcyclopropyl)-1,3,4-oxadiazol-2-yl)methanone]	1000 to 5000 nM
COc1ccc(-c2nnc(C(=O)N3CCc4[nH]cnc4[C@@H]3c3cc4c(Cl)cccn4n3)o2)nc1 [Example 1298, (R)-(4-(4-chloropyrazolo[1,5-a]pyridin-2-yl)-6,7-dihydro-1H-imidazo[4,5-c]pyridin-5(4H)-yl)(5-(5-methoxypyridin-2-yl)-1,3,4-oxadiazol-2-yl)methanone]	1000 to 5000 nM
O=C(c1nnc(-c2cnccn2)o1)N1CCc2[nH]cnc2[C@H]1c1cc2c(C(F)(F)F)cccn2n1 [Example 1300, (S)-(5-(pyrazin-2-yl)-1,3,4-oxadiazol-2-yl)(4-(4-(trifluoromethyl)pyrazolo[1,5-a]pyridin-2-yl)-6,7-dihydro-1H-imidazo[4,5-c]pyridin-5(4H)-yl)methanone]	< 500 nM
O=C(c1nnc(-c2cnccn2)o1)N1CCc2[nH]cnc2[C@@H]1c1cc2c(C(F)(F)F)cccn2n1 [Example 1301, (R)-(5-(pyrazin-2-yl)-1,3,4-oxadiazol-2-yl)(4-(4-(trifluoromethyl)pyrazolo[1,5-a]pyridin-2-yl)-6,7-dihydro-1H-imidazo[4,5-c]pyridin-5(4H)-yl)methanone]	> 5000 nM
O=C(c1nnc(-c2cccnc2)o1)N1CCc2[nH]cnc2[C@H]1c1cc2c(C(F)(F)F)cccn2n1 [Example 1302, (S)-(5-(pyridin-3-yl)-1,3,4-oxadiazol-2-yl)(4-(4-(trifluoromethyl)pyrazolo[1,5-a]pyridin-2-yl)-6,7-dihydro-1H-imidazo[4,5-c]pyridin-5(4H)-yl)methanone]	< 500 nM
O=C(c1nnc(-c2cccnc2)o1)N1CCc2[nH]cnc2[C@@H]1c1cc2c(C(F)(F)F)cccn2n1 [Example 1303, (R)-(5-(pyridin-3-yl)-1,3,4-oxadiazol-2-yl)(4-(4-(trifluoromethyl)pyrazolo[1,5-a]pyridin-2-yl)-6,7-dihydro-1H-imidazo[4,5-c]pyridin-5(4H)-yl)methanone]	1000 to 5000 nM
Cc1ncccc1-c1nnc(C(=O)N2CCc3[nH]cnc3[C@H]2c2cc3c(C(F)(F)F)cccn3n2)o1 [Example 1304, (S)-(5-(2-methylpyridin-3-yl)-1,3,4-oxadiazol-2-yl)(4-(4-(trifluoromethyl)pyrazolo[1,5-a]pyridin-2-yl)-6,7-dihydro-1H-imidazo[4,5-c]pyridin-5(4H)-yl)methanone]	< 500 nM
O=C(c1nnc(-c2cccnc2)o1)N1CCc2[nH]cnc2[C@H]1c1cc2cccc(Cl)n2n1 [Example 1306, (S)-(4-(7-chloropyrazolo[1,5-a]pyridin-2-yl)-6,7-dihydro-1H-imidazo[4,5-c]pyridin-5(4H)-yl)(5-(pyridin-3-yl)-1,3,4-oxadiazol-2-yl)methanone]	< 500 nM
O=C(c1nnc(-c2cccnc2)o1)N1CCc2[nH]cnc2[C@@H]1c1cc2cccc(Cl)n2n1 [Example 1307, (R)-(4-(7-chloropyrazolo[1,5-a]pyridin-2-yl)-6,7-dihydro-1H-imidazo[4,5-c]pyridin-5(4H)-yl)(5-(pyridin-3-yl)-1,3,4-oxadiazol-2-yl)methanone]	1000 to 5000 nM
Cc1cccc2cc([C@@H]3c4nc[nH]c4CCN3C(=O)c3nnc(-c4cccnc4)o3)nn12 [Example 1308, (S)-(4-(7-methylpyrazolo[1,5-a]pyridin-2-yl)-6,7-dihydro-1H-imidazo[4,5-c]pyridin-5(4H)-yl)(5-(pyridin-3-yl)-1,3,4-oxadiazol-2-yl)methanone]	< 500 nM
Cc1cccc2cc([C@H]3c4nc[nH]c4CCN3C(=O)c3nnc(-c4cccnc4)o3)nn12 [Example 1309, (R)-(4-(7-methylpyrazolo[1,5-a]pyridin-2-yl)-6,7-dihydro-1H-imidazo[4,5-c]pyridin-5(4H)-yl)(5-(pyridin-3-yl)-1,3,4-oxadiazol-2-yl)methanone]	1000 to 5000 nM
